The values that follow come from ChEMBL document CHEMBL5252509, “In depth analysis of kinase cross screening data to identify chemical starting points for inhibition of the Nek family of kinases” (Medchemcomm, 2018).

The target in experiment [1] is T1, Cytoplasmic tyrosine-protein kinase BMX (Homo sapiens) (UniProt P51813).
T1 sequence (whole entry): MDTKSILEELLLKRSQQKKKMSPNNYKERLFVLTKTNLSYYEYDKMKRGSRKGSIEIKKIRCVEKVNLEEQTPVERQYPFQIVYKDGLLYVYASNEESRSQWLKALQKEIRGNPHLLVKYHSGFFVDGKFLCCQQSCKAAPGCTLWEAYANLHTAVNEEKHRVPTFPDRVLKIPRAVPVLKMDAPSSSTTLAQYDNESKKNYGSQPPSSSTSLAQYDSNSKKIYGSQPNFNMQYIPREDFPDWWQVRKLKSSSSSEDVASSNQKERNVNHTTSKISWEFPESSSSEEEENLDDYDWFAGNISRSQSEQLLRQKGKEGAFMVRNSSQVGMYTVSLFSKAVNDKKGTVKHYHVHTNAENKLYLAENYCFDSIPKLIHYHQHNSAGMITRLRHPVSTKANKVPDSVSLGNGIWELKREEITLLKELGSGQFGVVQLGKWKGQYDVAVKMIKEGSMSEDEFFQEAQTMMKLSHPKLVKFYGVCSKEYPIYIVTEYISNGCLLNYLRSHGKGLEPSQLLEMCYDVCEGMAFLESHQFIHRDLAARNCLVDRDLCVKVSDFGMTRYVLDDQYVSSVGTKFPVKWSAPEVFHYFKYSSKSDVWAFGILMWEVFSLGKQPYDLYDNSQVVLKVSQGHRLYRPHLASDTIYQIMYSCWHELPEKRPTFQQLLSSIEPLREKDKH
Put plainly: Inhibition of BMX (unknown origin) at 1 uM relative to control.

Experiment [2] has as its target T2, Serine/threonine-protein kinase Nek10 (Homo sapiens) (UniProt Q6ZWH5).
T2 sequence (whole entry): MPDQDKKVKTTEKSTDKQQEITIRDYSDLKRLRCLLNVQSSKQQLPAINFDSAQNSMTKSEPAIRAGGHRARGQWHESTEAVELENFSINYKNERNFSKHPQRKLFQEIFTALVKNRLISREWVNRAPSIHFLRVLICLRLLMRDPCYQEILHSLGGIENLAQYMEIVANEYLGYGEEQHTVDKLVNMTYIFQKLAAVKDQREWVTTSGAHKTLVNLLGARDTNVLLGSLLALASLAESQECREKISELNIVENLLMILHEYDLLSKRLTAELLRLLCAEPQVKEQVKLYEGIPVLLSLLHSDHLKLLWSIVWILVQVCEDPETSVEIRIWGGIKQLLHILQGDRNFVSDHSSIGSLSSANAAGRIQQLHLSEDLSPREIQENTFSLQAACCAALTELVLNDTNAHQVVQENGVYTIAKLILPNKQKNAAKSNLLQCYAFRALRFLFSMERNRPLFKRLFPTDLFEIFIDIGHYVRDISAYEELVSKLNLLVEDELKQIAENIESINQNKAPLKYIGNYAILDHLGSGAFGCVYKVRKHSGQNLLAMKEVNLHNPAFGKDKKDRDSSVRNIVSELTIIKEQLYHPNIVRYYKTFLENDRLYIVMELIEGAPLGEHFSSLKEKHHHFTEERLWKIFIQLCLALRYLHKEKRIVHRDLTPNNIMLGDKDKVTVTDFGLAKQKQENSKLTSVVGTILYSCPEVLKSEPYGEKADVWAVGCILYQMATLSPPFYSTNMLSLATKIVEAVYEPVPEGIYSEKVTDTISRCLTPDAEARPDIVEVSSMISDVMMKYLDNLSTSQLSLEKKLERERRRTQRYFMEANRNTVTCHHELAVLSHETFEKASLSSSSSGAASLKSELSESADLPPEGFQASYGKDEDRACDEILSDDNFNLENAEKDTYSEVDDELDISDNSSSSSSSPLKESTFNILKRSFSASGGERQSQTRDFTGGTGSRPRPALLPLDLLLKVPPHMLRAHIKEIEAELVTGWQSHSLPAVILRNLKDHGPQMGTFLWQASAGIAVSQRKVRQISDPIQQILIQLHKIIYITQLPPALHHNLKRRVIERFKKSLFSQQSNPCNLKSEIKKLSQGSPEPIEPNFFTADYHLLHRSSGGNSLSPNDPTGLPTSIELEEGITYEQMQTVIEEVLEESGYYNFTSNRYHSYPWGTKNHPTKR
Put plainly: Inhibition of NEK10 (unknown origin) at 1 uM relative to control.

The target of experiment [3] is T3, Mitogen-activated protein kinase kinase kinase 19 (Homo sapiens) (UniProt Q56UN5).
T3 sequence (whole entry): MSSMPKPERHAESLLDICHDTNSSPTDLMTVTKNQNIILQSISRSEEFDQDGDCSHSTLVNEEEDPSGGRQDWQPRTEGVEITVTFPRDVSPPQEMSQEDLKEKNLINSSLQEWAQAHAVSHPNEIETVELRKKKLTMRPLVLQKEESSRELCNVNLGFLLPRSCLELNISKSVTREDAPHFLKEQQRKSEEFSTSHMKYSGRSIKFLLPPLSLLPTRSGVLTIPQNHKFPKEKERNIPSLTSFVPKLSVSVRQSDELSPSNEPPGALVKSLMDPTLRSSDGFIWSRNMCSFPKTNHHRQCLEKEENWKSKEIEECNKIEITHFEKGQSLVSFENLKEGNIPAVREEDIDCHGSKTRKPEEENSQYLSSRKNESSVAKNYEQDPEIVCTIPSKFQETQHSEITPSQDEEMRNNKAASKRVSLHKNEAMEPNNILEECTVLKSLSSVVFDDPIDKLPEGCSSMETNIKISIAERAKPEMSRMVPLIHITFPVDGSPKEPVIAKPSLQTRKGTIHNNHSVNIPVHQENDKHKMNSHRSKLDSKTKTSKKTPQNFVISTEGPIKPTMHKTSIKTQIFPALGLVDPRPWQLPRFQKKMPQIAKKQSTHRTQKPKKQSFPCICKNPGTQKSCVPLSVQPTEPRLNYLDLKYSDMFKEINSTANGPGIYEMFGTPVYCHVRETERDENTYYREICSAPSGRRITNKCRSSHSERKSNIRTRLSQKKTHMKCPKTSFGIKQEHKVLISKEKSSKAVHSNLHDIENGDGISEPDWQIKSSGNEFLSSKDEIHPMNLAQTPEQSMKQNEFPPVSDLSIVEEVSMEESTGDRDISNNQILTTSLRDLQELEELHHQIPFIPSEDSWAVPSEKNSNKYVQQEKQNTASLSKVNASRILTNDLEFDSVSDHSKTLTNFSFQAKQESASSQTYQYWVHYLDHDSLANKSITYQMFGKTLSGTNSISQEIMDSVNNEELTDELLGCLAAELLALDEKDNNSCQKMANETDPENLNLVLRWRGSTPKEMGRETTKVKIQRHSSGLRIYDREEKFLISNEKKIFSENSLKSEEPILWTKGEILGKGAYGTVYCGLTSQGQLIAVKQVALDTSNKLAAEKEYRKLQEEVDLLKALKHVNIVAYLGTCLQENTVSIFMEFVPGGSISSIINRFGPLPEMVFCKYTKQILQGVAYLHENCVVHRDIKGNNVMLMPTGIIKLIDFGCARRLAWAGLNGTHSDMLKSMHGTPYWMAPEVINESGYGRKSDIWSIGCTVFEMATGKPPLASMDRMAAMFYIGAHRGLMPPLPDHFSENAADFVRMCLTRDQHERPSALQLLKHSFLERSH
Put plainly: Inhibition of YSK4 (unknown origin) at 1 uM relative to control.

In experiment [4] the target is Fibroblast growth factor receptor 3 (Homo sapiens) (UniProt P22607). Put plainly: Inhibition of FGFR3 (unknown origin) at 1 uM relative to control.
Experiment [5] deals with Angiopoietin-1 receptor (Homo sapiens) (UniProt Q02763). Put plainly: Inhibition of TIE2 (unknown origin) at 1 uM relative to control.
For experiment [6], the target named is Serine/threonine-protein kinase Nek6 (Homo sapiens) (UniProt Q9HC98). Put plainly: Inhibition of NEK6 (unknown origin) at 1 uM relative to control.
Experiment [7] has as its target Serine/threonine-protein kinase Nek7 (Homo sapiens) (UniProt Q8TDX7). Put plainly: Inhibition of NEK7 (unknown origin) at 1 uM relative to control.
Experiment [8] has as its target T4, Serine/threonine-protein kinase Nek5 (Homo sapiens) (UniProt Q6P3R8).
T4 sequence (whole entry): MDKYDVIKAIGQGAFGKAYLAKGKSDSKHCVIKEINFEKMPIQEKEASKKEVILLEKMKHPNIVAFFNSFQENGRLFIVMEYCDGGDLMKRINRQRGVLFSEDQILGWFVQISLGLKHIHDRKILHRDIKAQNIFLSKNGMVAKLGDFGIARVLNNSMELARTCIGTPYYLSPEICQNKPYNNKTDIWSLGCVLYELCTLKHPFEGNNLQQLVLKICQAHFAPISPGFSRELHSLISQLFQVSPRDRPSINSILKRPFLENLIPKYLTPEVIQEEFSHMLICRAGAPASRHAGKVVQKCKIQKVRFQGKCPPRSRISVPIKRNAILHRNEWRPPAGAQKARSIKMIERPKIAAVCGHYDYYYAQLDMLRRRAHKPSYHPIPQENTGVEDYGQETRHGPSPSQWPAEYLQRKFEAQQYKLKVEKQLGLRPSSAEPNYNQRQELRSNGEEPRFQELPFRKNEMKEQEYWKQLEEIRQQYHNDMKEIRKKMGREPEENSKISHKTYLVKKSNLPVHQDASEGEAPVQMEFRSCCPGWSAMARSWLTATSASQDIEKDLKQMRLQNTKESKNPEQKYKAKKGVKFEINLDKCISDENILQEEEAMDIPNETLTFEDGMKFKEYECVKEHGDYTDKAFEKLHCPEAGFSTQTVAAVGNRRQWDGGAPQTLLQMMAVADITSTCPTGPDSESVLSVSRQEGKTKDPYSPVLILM
Put plainly: Inhibition of NEK5 (unknown origin) at 1 uM relative to control.

Experiment [9] has as its target T5, Serine/threonine-protein kinase Nek3 (Homo sapiens) (UniProt P51956).
T5 sequence (whole entry): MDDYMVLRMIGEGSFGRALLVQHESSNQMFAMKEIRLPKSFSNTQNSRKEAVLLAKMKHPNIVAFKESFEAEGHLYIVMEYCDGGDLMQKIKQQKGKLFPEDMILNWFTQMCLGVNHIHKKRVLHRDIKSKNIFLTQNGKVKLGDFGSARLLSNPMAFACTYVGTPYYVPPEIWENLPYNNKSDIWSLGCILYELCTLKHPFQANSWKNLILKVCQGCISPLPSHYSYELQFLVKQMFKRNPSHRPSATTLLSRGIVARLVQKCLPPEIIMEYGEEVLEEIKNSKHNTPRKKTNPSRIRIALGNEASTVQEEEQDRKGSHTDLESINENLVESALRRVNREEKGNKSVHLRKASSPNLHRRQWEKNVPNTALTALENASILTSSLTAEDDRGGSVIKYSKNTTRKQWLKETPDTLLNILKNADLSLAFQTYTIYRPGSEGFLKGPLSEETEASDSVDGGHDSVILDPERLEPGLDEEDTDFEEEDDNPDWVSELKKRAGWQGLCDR
Put plainly: Inhibition of NEK3 (unknown origin) at 1 uM relative to control.

Experiment [10] has as its target T6, Serine/threonine-protein kinase Nek11 (Homo sapiens) (UniProt Q8NG66).
T6 sequence (whole entry): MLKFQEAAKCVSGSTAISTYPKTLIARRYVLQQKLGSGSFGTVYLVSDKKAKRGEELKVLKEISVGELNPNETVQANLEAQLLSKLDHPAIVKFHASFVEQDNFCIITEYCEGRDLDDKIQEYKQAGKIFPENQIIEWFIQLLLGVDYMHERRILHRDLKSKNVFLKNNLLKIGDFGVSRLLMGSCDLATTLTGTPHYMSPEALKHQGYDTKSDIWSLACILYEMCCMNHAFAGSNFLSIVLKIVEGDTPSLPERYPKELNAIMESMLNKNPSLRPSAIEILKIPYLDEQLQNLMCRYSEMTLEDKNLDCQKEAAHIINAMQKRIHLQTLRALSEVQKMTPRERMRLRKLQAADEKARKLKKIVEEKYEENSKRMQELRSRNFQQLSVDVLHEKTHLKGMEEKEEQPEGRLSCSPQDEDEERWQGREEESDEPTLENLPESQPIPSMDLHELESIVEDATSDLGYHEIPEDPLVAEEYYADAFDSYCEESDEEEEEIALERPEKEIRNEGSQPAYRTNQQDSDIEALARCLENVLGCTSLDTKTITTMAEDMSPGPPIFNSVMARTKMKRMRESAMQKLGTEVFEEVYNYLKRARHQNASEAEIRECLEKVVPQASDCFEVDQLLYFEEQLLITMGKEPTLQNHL
Put plainly: Inhibition of NEK11 (unknown origin) at 1 uM relative to control.

Experiment [11] deals with T7, Serine/threonine-protein kinase Nek2 (Homo sapiens) (UniProt P51955).
T7 sequence (whole entry): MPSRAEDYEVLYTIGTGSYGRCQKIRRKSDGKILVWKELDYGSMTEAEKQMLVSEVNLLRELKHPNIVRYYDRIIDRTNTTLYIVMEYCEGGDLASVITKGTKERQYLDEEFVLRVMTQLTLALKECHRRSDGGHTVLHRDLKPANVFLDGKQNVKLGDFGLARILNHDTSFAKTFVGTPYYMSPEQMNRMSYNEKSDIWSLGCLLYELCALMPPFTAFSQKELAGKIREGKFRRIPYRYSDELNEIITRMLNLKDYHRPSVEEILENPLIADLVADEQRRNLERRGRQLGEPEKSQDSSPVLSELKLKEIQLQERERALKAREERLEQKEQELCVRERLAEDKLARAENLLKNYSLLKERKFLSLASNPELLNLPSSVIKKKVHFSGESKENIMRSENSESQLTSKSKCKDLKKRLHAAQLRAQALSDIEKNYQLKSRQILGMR
Put plainly: Inhibition of NEK2 (unknown origin) at 1 uM relative to control.

Sequence of Fibroblast growth factor receptor 3 (Homo sapiens) (P22607 23-806 limits assumed): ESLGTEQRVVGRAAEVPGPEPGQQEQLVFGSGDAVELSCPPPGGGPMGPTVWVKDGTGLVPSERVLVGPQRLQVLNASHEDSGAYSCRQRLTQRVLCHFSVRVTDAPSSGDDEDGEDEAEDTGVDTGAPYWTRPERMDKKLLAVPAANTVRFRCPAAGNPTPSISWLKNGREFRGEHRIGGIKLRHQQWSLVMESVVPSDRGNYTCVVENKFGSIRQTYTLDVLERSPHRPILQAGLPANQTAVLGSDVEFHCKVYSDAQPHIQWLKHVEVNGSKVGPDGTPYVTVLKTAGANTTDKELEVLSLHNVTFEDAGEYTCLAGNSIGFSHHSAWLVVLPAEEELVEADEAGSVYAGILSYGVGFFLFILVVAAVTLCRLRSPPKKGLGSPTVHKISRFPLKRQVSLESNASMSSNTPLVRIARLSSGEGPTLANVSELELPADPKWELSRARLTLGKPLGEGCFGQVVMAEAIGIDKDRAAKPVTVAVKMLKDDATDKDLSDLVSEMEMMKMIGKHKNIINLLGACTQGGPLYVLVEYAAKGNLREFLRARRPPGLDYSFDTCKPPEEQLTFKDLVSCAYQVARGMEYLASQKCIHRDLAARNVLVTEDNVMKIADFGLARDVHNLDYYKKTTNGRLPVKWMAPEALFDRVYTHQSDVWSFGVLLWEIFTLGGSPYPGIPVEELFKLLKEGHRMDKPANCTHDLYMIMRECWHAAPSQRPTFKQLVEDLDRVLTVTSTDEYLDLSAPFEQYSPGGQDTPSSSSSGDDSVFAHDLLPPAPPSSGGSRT
Sequence of Angiopoietin-1 receptor (Homo sapiens) (Q02763 whole entry): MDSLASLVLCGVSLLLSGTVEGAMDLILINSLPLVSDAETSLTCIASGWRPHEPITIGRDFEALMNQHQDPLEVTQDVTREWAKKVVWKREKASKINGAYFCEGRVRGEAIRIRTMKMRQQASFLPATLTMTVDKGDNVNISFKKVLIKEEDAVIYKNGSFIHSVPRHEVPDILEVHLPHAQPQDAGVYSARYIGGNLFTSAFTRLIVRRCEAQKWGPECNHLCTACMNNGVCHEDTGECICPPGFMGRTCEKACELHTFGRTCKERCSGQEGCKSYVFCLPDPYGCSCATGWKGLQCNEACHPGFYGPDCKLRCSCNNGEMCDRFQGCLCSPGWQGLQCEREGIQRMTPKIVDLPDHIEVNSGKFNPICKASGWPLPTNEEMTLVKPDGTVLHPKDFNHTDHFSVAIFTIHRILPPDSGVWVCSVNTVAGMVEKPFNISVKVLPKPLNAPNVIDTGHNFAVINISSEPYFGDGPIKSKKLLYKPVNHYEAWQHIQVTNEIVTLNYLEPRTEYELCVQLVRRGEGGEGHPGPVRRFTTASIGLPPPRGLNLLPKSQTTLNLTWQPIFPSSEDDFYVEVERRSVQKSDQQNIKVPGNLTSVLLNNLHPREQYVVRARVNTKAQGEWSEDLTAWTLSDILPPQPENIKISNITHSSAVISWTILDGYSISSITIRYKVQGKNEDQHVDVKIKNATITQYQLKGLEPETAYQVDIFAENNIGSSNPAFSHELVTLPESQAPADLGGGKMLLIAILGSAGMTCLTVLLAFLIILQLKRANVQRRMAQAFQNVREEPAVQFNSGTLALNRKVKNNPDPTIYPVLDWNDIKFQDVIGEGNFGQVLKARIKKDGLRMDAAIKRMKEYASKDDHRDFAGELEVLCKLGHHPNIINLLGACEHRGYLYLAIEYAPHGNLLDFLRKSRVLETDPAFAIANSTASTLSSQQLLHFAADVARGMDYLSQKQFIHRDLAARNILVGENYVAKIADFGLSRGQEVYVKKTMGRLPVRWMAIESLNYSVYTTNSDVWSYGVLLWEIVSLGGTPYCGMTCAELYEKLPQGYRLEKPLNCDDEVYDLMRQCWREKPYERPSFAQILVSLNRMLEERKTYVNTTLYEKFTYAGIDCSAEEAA
Sequence of Serine/threonine-protein kinase Nek7 (Homo sapiens) (Q8TDX7 whole entry, looked up): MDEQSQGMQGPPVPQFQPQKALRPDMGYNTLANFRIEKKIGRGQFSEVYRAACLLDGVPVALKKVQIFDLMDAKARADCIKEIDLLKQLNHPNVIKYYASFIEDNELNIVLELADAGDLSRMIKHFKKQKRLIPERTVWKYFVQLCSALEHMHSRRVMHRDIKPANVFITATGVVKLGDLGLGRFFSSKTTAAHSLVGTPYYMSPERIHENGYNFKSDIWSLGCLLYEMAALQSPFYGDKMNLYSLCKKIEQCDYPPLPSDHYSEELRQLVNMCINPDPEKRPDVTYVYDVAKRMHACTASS
Sequence of Serine/threonine-protein kinase Nek6 (Homo sapiens) (Q9HC98 whole entry): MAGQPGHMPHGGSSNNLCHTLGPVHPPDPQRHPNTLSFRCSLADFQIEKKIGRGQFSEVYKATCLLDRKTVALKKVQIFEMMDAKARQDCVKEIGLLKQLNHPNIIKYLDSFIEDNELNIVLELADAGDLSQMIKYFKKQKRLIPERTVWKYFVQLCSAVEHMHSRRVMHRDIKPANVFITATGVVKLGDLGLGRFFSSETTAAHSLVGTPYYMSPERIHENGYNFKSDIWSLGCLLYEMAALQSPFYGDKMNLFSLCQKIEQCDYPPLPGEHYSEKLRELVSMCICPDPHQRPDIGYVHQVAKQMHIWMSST

For `NC(=O)c1nnc2ccccc2c1N`, the inhibition in experiment [1] was determined as 90.1%; in [2] it was 85%; in [3], 88%; in [4] it was 90%; in experiment [5] it was 98.7%.
For `Cn1cc(-c2cccc3c(N)c(C(N)=O)nnc23)cn1`, in that order: 15%, 48%, 94.4%, 12% and 1%.
On to `CC(C)(C)c1nc(-c2cccc(NS(=O)(=O)c3c(F)cccc3F)c2F)c(-c2ccnc(N)n2)s1`, for which the inhibition was 56% in [2]; 0.3% in [6]; 1.6% in [7]; 75% in experiment [8]; 100% in [9]; 0.2% in experiment [10]. In [11], this compound had an inhibition of 7%.
`CC[C@@H]1C(=O)N(C)c2cnc(Nc3ccc(C(=O)NC4CCN(C)CC4)cc3OC)nc2N1C1CCCC1` yielded an inhibition in experiment [11] of 72%.

As a reminder, the inhibition is the change of the read-out against control, counted positive when it falls. A higher inhibition goes with a strong effect.
